Patent publication US10131639B2, “Formulations of 2-(tert-butylamino)-4-((1R,3R,4R)-3-hydroxy-4methylcyclohexylamino)-pyrimidine-5-carboxamide” (Signal Pharmaceuticals, LLC, priority 2014, dated 2018)

Key:
[1] = Hygroscopicity by dynamic vapor sorption (DVS); format: physicochemical; conditions: for Hygroscopicity (80% RH, 25° C., cycle 1 sorption): DVS water uptake, L-tartrate: hydrate, difference between 20% RH and 80% RH
Source text: DVS: A portion of the sample was loaded into a quartz sample holder and tested using DVS-Advantage system in two continuous adsorption/desorption cycles. The settings are described as follows:
Adsorption/desorption cycle 1: 50 to 95 to 0% RH;
Adsorption/desorption cycle 2: 0 to 95 to 0% RH;

[2] = Solid state chemical stability under stress conditions (HPLC with UV detection); conditions: for Chemical stability (open vial, 2 weeks) / Chemical stability (open vial, 2 weeks): degradation: HPLC/UV; for % Remaining at 80° C. / % Remaining at 80° C./75% RH: solid state, open vial, 2 weeks, HPLC with UV detection
Description: Six vials were prepared for each salt. Two samples were stored in the refrigerator. The other four samples in open vials were stored under 4 stress conditions, respectively. […] One set of samples stored in the refrigerator were used to prepare the stock and standard solutions.

[3] = Solid state physical stability under stress conditions (XRPD); format: physicochemical; conditions: XRPD vs initial material
Description: A portion of the sample was loaded to a 4 mL clear glass vial. Four samples were prepared for each salt. The vials (open) were stored under 4 different stress conditions, respectively.

[4] = Solubility in water and SGF (24 hours, ambient temperature, HPLC/UV); format: physicochemical; conditions: for pH of the solubility sample in SGF / pH of the solubility sample in water: measured after 24 hours shaking; for Solubility in SGF (equiv. to free base): simulated gastric fluid without pepsin; for Solubility in SGF (equiv. to free base) / Solubility in water (equiv. to free base): ambient temperature, 24 hours
Description: Solubility in Water and SGF: A portion of the sample was weighed into a 2 mL clear HPLC vial. […] The sample was removed from the shaker and pH measurement was performed using a calibrated pH meter. Then a portion of the sample was filtered using […] Nylon-membraned centrifuge tube filter at 14000 RPM for 5 min. The filtrate was analyzed using HPLC/UV with appropriate dilution. The filtered solid residues were analyzed using XRPD.
For solubility in SGF, the samples were prepared and assayed in the same procedures as mentioned above.

[5] = Hygroscopicity by dynamic vapor sorption (DVS); format: physicochemical; conditions: 25° C., after pre-heating at 50° C. for 3 hours
[6] = 80° C./75% RH, listed as H2SO4 salt

C[C@@H]1CC[C@@H](Nc2nc(NC(C)(C)C)ncc2C(N)=O)C[C@H]1O.O=S(=O)(O)O [Compound H2SO4]
Hygroscopicity (80% RH, 25° C., cycle 1 sorption) [1]: 6.13% | hygroscopicity (sorption/desorption, in words) ([1]; DVS, 25° C.): hygroscopic | Chemical stability (open vial, 2 weeks) ([2]; 80° C./75% RH): no change | Chemical stability (open vial, 2 weeks) [2, 6]: stable | Chemical stability (open vial, 2 weeks) ([2]; 80° C.): no change | Chemical stability (open vial, 2 weeks) ([2]; 80° C., listed as H2SO4 salt): stable | % Remaining at 80° C. ([2]; 80° C.): 100.0% | % Remaining at 80° C./75% RH ([2]; 80° C./75% RH): 100.1% | Physical stability (open vial, 2 weeks) ([3]; 80° C./75% RH): form change | Physical stability (open vial, 2 weeks) [3, 6]: not stable | Physical stability (open vial, 2 weeks) ([3]; 80° C.): no change | Physical stability (open vial, 2 weeks) ([3]; 80° C., listed as H2SO4 salt): physically stable | pH of the solubility sample in SGF [4]: (pH 1.03) | pH of the solubility sample in water [4]: (pH 1.69) | Solubility in SGF (equiv. to free base) [4]: 3187 µg/mL | Solubility in water (equiv. to free base) [4]: 2647 µg/mL

C[C@@H]1CC[C@@H](Nc2nc(NC(C)(C)C)ncc2C(N)=O)C[C@H]1O.O=P(O)(O)O [Compound H3PO4]
Hygroscopicity (80% RH, 25° C., cycle 1 sorption) [1]: 0.48% | hygroscopicity (sorption/desorption, in words) ([1]; DVS, 25° C.): not hygroscopic | Chemical stability (open vial, 2 weeks) ([2]; 80° C./75% RH): no change | Chemical stability (open vial, 2 weeks) ([2]; 80° C.): no change | % Remaining at 80° C. ([2]; 80° C.): 101.1% | % Remaining at 80° C./75% RH ([2]; 80° C./75% RH): 99.9% | Physical stability (open vial, 2 weeks) ([3]; 80° C./75% RH): no change | Physical stability (open vial, 2 weeks) ([3]; 80° C./75% RH, listed as H3PO4 salt): physically stable | Physical stability (open vial, 2 weeks) ([3]; 80° C.): no change | Physical stability (open vial, 2 weeks) ([3]; 80° C., listed as H3PO4 salt): physically stable

CC1CCC(Nc2nc(NC(C)(C)C)ncc2C(N)=O)CC1O.Cl (stereo not shown) [HCl]
Hygroscopicity (80% RH, 25° C., cycle 1 sorption) [1]: 5.21% | hygroscopicity (sorption/desorption, in words) ([1]; DVS, 25° C.): hygroscopic | water uptake at 40% RH, Cycle 2 sorption isotherm ([1]; DVS, 25° C.): 4.89% | Chemical stability (open vial, 2 weeks) ([2]; 80° C./75% RH): no change | Chemical stability (open vial, 2 weeks) ([2]; 80° C.): no change | % Remaining at 80° C. ([2]; 80° C.): 101.2% | % Remaining at 80° C./75% RH ([2]; 80° C./75% RH): 100.4% | Physical stability (open vial, 2 weeks) ([3]; 80° C./75% RH): form change | Physical stability (open vial, 2 weeks) ([3]; 80° C./75% RH, listed as HCl salt): not stable | Physical stability (open vial, 2 weeks) ([3]; 80° C.): no change | Physical stability (open vial, 2 weeks) ([3]; 80° C., listed as HCl salt): physically stable | pH of the solubility sample in SGF [4]: (pH 1.19) | pH of the solubility sample in water [4]: (pH 3.87) | Solubility in SGF (equiv. to free base) [4]: 6058 µg/mL | Solubility in water (equiv. to free base) [4]: 10761 µg/mL

CC(O)C(=O)O.CC1CCC(Nc2nc(NC(C)(C)C)ncc2C(N)=O)CC1O [L-lactate]
Hygroscopicity (80% RH, 25° C., cycle 1 sorption) [1]: 2.65% | hygroscopicity (sorption/desorption, in words) ([1]; DVS, 25° C.): moderately hygroscopic | Chemical stability (open vial, 2 weeks) ([2]; 80° C./75% RH): no change | Chemical stability (open vial, 2 weeks) ([2]; 80° C.): no change | % Remaining at 80° C. ([2]; 80° C.): 100.4% | % Remaining at 80° C./75% RH ([2]; 80° C./75% RH): 100.5% | Physical stability (open vial, 2 weeks) ([3]; 80° C./75% RH): form change | Physical stability (open vial, 2 weeks) ([3]; 80° C./75% RH, listed as L-lactate salt form 2): not physically stable | Physical stability (open vial, 2 weeks) ([3]; 80° C.): form change | Physical stability (open vial, 2 weeks) ([3]; 80° C., listed as L-lactate salt form 2): not physically stable

C[C@@H]1CC[C@@H](Nc2nc(NC(C)(C)C)ncc2C(N)=O)C[C@H]1O.O=C(O)C[C@H](O)C(=O)O [L-malate]
Hygroscopicity (80% RH, 25° C., cycle 1 sorption) [1]: 5.60% | hygroscopicity (sorption/desorption, in words) ([1]; DVS, 25° C.): hygroscopic | Chemical stability (open vial, 2 weeks) ([2]; 80° C./75% RH): not chemically stable | Chemical stability (open vial, 2 weeks): degradation ([2]; 80° C./75% RH): ~7% degradation | Chemical stability (open vial, 2 weeks) ([2]; 80° C.): not chemically stable | Chemical stability (open vial, 2 weeks): degradation ([2]; 80° C.): ~12% degradation | % Remaining at 80° C. ([2]; 80° C.): 87.7% | % Remaining at 80° C./75% RH ([2]; 80° C./75% RH): 92.9% | Physical stability (open vial, 2 weeks) ([3]; 80° C./75% RH): form change | Physical stability (open vial, 2 weeks) ([3]; 80° C./75% RH, listed as L-malate salt): not physically stable | Physical stability (open vial, 2 weeks) ([3]; 80° C.): form change | Physical stability (open vial, 2 weeks) ([3]; 80° C., listed as L-malate salt): not physically stable | pH of the solubility sample in SGF [4]: (pH 1.54) | pH of the solubility sample in water [4]: (pH 4.07) | Solubility in SGF (equiv. to free base) [4]: 8922 µg/mL | Solubility in water (equiv. to free base) [4]: 4496 µg/mL

O=C(O)[C@H](O)[C@@H](O)C(=O)O [L-tartrate]
Hygroscopicity (80% RH, 25° C., cycle 1 sorption) [1]: 0.81% | hygroscopicity (sorption/desorption, in words) ([1]; DVS, 25° C., listed as L-tartrate salt): slightly hygroscopic | hygroscopicity (sorption/desorption, in words) ([1]; DVS, 25° C., listed as L-tartrate salt (hydrate)): not hygroscopic | Chemical stability (open vial, 2 weeks) ([2]; 80° C./75% RH): no change | Chemical stability (open vial, 2 weeks) ([2]; 80° C.): no change | % Remaining at 80° C. ([2]; 80° C.): 98.7% | % Remaining at 80° C./75% RH ([2]; 80° C./75% RH): 98.3% | Physical stability (open vial, 2 weeks) ([3]; 80° C./75% RH): no change | Physical stability (open vial, 2 weeks) ([3]; 80° C./75% RH, listed as L-tartrate salt): physically stable | Physical stability (open vial, 2 weeks) ([3]; 80° C.): no change | Physical stability (open vial, 2 weeks) ([3]; 80° C., listed as L-tartrate salt): physically stable | Cycle 1 sorption at 20% RH [5]: 4.32%
